Key:
corn = assay: Test C pre-/postemergence herbicide test; type: in vivo, Zea mays; conditions: for Plant response rating, Corn: preemergence; for Corn plant response rating: Preemergence, 500 g ai/ha, scale 0 to 100, 0 no effect, 100 complete control
How it was run: (§1)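 Emerged plants at the 1- to 4-leaf stage (2–18 cm), or freshly planted seeds, received test chemicals in a non-phytotoxic solvent mixture with surfactant. Response was visually scored against controls after 12 to 14 days in the greenhouse, on a 0 (no effect) to 100 (complete control) scale.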

goosegrass = assay: Test C pre-/postemergence herbicide test; type: in vivo, Eleusine indica; conditions: for Plant response rating, Goosegrass: preemergence; for Goosegrass plant response rating: Preemergence, 500 g ai/ha, scale 0 to 100, 0 no effect, 100 complete control
How it was run: as §1

rice = assay: Test C flooded paddy test; type: in vivo, Oryza sativa; conditions: for Plant response rating, Rice: 500 g ai/ha, visual rating after 12 to 14 days
How it was run: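 Injury scored visually against controls on a 0 (no effect) to 100 (complete control) scale, 12 to 14 days after treatment in greenhouse. Flooded paddy plants treated at 2-leaf stage; postemergence plants at 1- to 4-leaf stage, 2 to 18 cm tall.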

velvetleaf = assay: Test C pre-/postemergence herbicide test; type: in vivo, Abutilon theophrasti; conditions: for Plant response rating, Velvetleaf: preemergence; for Velvetleaf plant response rating: Preemergence, 500 g ai/ha, scale 0 to 100, 0 no effect, 100 complete control
How it was run: as §1

johnsongrass = assay: Test C pre-/postemergence herbicide test; type: in vivo, Sorghum halepense; conditions: for Plant response rating, Johnsongrass: preemergence; for Johnsongrass plant response rating: Preemergence, 500 g ai/ha, scale 0 to 100, 0 no effect, 100 complete control
How it was run: as §1

cocklebur = assay: Test C pre-/postemergence herbicide test; type: in vivo, Xanthium strumarium; conditions: for Plant response rating, Cocklebur: preemergence; for Cocklebur plant response rating: Preemergence, 500 g ai/ha, scale 0 to 100, 0 no effect, 100 complete control
How it was run: as §1

ducksalad = assay: Test C flooded paddy test; type: in vivo, Heteranthera limosa; conditions: for Plant response rating, Ducksalad: 500 g ai/ha, visual rating after 12 to 14 days
bermudagrass = assay: Test C pre-/postemergence herbicide test; type: in vivo, Cynodon dactylon; conditions: for Plant response rating, Bermudagrass: preemergence; for Bermudagrass plant response rating: Preemergence, 500 g ai/ha
How it was run: as §1

soybean = assay: Test C pre-/postemergence herbicide test; type: in vivo, Glycine max; conditions: for Plant response rating, Soybean: preemergence; for Soybean plant response rating: Preemergence, 500 g ai/ha, scale 0 to 100, 0 no effect, 100 complete control
How it was run: as §1

[1] = tested on: smallflower umbrella sedge; assay: Test C flooded paddy test; type: in vivo, Cyperus difformis; conditions: for Plant response rating, Sedge, Umbrella: 500 g ai/ha, visual rating after 12 to 14 days
[2] = 125 g ai/ha, scale 0 (no effect) to 100 (complete control), visual, 12 to 14 days
[3] = 250 g ai/ha, scale 0 to 100 (0 no effect, 100 complete control), visual, 12 to 14 days
[4] = 62 g ai/ha, scale 0 to 100 (0 no effect, 100 complete control)
[5] = 125 g ai/ha, scale 0 to 100 (0 no effect, 100 complete control)
[6] = 250 g ai/ha, scale of 0 to 100, 0 is no effect, 100 is complete control
[7] = scale 0 to 100 (0 no effect, 100 complete control)
[8] = 62 g ai/ha, scale 0 to 100, 0 no effect, 100 complete control
[9] = scale 0 to 100, 0 no effect, 100 complete control

Row | SMILES | Plant response rating, Corn (corn; 62 g ai/ha, scale 0 to 100) | Plant response rating, Corn (corn; [2]) | Plant response rating, Corn (corn; [3]) | Corn plant response rating (corn) | Plant response rating, Goosegrass (goosegrass; 62 g ai/ha, scale 0 to 100) | Plant response rating, Goosegrass (goosegrass; [2]) | Goosegrass plant response rating (goosegrass) | Rice plant response rating (rice; [4]) | Rice plant response rating (rice; [5]) | Rice plant response rating (rice; [6]) | Plant response rating, Rice (rice; [7]) | Plant response rating, Velvetleaf (velvetleaf; 62 g ai/ha, scale 0 to 100) | Plant response rating, Velvetleaf (velvetleaf; [2]) | Velvetleaf plant response rating (velvetleaf) | Plant response rating, Johnsongrass (johnsongrass; 62 g ai/ha, scale 0 to 100) | Plant response rating, Johnsongrass (johnsongrass; [2]) | Johnsongrass plant response rating (johnsongrass) | Plant response rating, Cocklebur (cocklebur; [2]) | Plant response rating, Cocklebur (cocklebur; [3]) | Cocklebur plant response rating (cocklebur) | other results
1 | CCNC(=O)c1ccnc(NC(=O)c2cc(C(C)(C)C)nn2CC)c1 [Compound 152] | 40 | 45 | 50 | 70 | 80 | 100 | 100 | 50 | 75 | 75 | 80 | 0 | 100 | 100 | 80 | 100 | 100 | 65 | 65 | 100 | Ducksalad plant response rating (ducksalad; [4]): 85; Ducksalad plant response rating (ducksalad; [5]): 85; Ducksalad plant response rating (ducksalad; [6]): 85; Plant response rating, Ducksalad (ducksalad; [7]): 85; Plant response rating, Bermudagrass (bermudagrass; [8]): 85; Plant response rating, Bermudagrass (bermudagrass; [2]): 90; Plant response rating, Bermudagrass (bermudagrass; [3]): 100; Bermudagrass plant response rating (bermudagrass; [9]): 100; Plant response rating, Soybean (soybean; 62 g ai/ha, scale 0 to 100): 0; Plant response rating, Soybean (soybean; [2]): 10; Soybean plant response rating (soybean): 100; Sedge, Umbrella plant response rating [1, 4]: 80; Sedge, Umbrella plant response rating [1, 5]: 80; Sedge, Umbrella plant response rating [1, 6]: 85; Plant response rating, Sedge, Umbrella [1, 7]: 85
2 | CCc1nn(C(C)(C)C)cc1C(=O)Nc1cccc(C(C)=NO)c1 [Compound 188] | 0 | 0 | 0 | 5 | 15 | 70 | 90 | 35 | 45 | 65 | 75 | 0 | 0 | 75 | 0 | 20 | 75 | 0 | 0 | 0 | Plant response rating, Cocklebur (cocklebur; 62 g ai/ha, scale 0 to 100): 0; Ducksalad plant response rating (ducksalad; [4]): 20; Ducksalad plant response rating (ducksalad; [5]): 65; Ducksalad plant response rating (ducksalad; [6]): 75; Plant response rating, Ducksalad (ducksalad; [7]): 85; Plant response rating, Bermudagrass (bermudagrass; [8]): 75; Plant response rating, Bermudagrass (bermudagrass; [2]): 100; Plant response rating, Bermudagrass (bermudagrass; [3]): 100; Bermudagrass plant response rating (bermudagrass; [9]): 100; Plant response rating, Soybean (soybean; 62 g ai/ha, scale 0 to 100): 0; Plant response rating, Soybean (soybean; [2]): 0; Soybean plant response rating (soybean): 0; Sedge, Umbrella plant response rating [1, 4]: 30; Sedge, Umbrella plant response rating [1, 5]: 75; Sedge, Umbrella plant response rating [1, 6]: 80; Plant response rating, Sedge, Umbrella [1, 7]: 85
